In patent US5321030A, “Creatine analogs having antiviral activity” (priority 1991, dated 1994):
Converted amounts (≈) assume the structure as drawn. Like-named read-outs stand apart in the source and are kept apart here.

Columns and labels:
HCMV, strain AD-169 = assay: Plaque reduction assay, HCMV strain AD-169; format: cell-based, Human Cytomegalovirus; design: TI50 (CD50 ÷ ED50): unit not given here; settings: for EC50: read-out: ED50 (the source's name)
[1] = Cytotoxicity in plaque reduction assay, Hs68 cells; format: cell-based; settings: human, Table 5, read-out: CD50 (the source's name)
Method: Cytotoxicity was determined by examination of cells (located away from plaques) in infected wells which had been treated with drug.

creatine kinase = creatine kinase (Oryctolagus cuniculus, UniProt P00563); settings: cited from earlier work
[2] = tested on: Influenza B/Hong Kong/5/72; assay: CPE-reduction assay, Influenza B in MDCK cells; format: cell-based; settings: 62.5 μg/ml-4 mg/ml; only at the highest concentration
Method: Cyclocreatine was prepared at a concentration of 100 mg/ml in MEM, without serum, 0.18% NaHCO3, 50 μg/ml gentamicin. Further dilutions (2-fold dilution scheme) were made in MEM without serum.
Cells (0.2 ml/well) were seeded in 96-well flat bottom tissue culture plates, (Corning Glass Works, Corning, N.Y.). The cells were incubated overnight in order to establish cell monolayers. Growth medium was decanted from the 96-well plates and various dilutions of compound were added to wells of the plate (4 wells/dilution; 0.1 ml/well). Medium alone was added to uninfected cell and virus (no drug) control wells (0.1 ml/well). Virus, diluted in test medium (0.1 ml final volume), was added to all compound test wells of the plate (3 wells/dilution) and to 9 virus control wells. Test medium (0.1 ml/well) without virus was added to all toxicity control wells (1 well/dilution for each compound tested) and to 3 uninfected cell control wells.
The plates were incubated at 37° C. until virus control wells (no drug) had CPE readings near 100% CPE. Cells were then examined microscopically for virus CPE and graded on a scale of 0-4, with 0 being no CPE and 4 being 100% CPE. The cells in toxicity control wells were observed microscopically and graded for morphological changes due to cytotoxicity. […]

[3] = tested on: HCMV, strain C8704 (DHPG resistant); assay: microbe, parasite or virus in culture; format: cell-based, Human Cytomegalovirus; design: TI50 (CD50 ÷ ED50): unit not given beside the values; settings: for # Plaques: virus control 91.0 ± 8.4

creatine kinase, sequence (P00563 whole entry): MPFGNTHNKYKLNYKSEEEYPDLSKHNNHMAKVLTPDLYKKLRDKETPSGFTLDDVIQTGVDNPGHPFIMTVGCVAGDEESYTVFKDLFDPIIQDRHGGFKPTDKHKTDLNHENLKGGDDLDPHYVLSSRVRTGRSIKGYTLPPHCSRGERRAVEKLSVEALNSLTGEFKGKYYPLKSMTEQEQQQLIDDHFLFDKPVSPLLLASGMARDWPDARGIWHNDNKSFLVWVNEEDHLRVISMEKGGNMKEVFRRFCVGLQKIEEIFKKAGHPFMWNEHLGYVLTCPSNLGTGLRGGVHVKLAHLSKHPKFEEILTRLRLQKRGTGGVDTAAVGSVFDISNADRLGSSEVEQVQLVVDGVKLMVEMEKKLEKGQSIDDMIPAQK

For NC1=NCCN1CC(=O)O [cyclocreatine, 1-carboxymethyl-2-iminoimidazolidine], the “# Plaques” value (HCMV, strain AD-169; Hs-68 cells, AM-285 1000 μg/ml, virus control 74.2 ± 8.6) was 19.5, the “# Plaques” value (HCMV, strain AD-169; Hs-68 cells, AM-285 2000 μg/ml, virus control 74.2 ± 8.6) was 1.5 and the “# Plaques” value (HCMV, strain AD-169; Hs-68 cells, AM-285 4000 μg/ml, virus control 74.2 ± 8.6) was 0. It also gave an inhibition at 260 µg/mL (HCMV, strain AD-169; Human betaherpesvirus 5, AD169, Hs68, read-out: % Reduction) of 0%, an EC50 (HCMV, strain AD-169; Human betaherpesvirus 5, AD169, Hs68, Hs-68 cells, Table 5) of 647 µg/mL (≈ 4.52 mM) and an inhibition at 62.5 µg/mL (HCMV, strain AD-169; Human betaherpesvirus 5, AD169, Hs68, Hs-68 cells, AM-285 62.5 μg/ml) of 0%. It also gave an inhibition at 125 µg/mL (HCMV, strain AD-169; Human betaherpesvirus 5, AD169, Hs68, Hs-68 cells, AM-285 125 μg/ml) of 0%, an inhibition at 500 µg/mL (HCMV, strain AD-169; Human betaherpesvirus 5, AD169, Hs68, Hs-68 cells, AM-285 500 μg/ml) of 45% and an inhibition at 1000 µg/mL (HCMV, strain AD-169; Human betaherpesvirus 5, AD169, Hs68, Hs-68 cells, AM-285 1000 μg/ml) of 74%. The inhibition at 2000 µg/mL (HCMV, strain AD-169; Human betaherpesvirus 5, AD169, Hs68, Hs-68 cells, AM-285 2000 μg/ml) was 98%, the inhibition at 4000 µg/mL (HCMV, strain AD-169; Human betaherpesvirus 5, AD169, Hs68, Hs-68 cells, AM-285 4000 μg/ml) was 100% and the EC50 (HCMV, strain AD-169; Human betaherpesvirus 5, AD169, MRC5, MRC-5 cells, Table 4) was 610 µg/mL (≈ 4.26 mM). For the same compound, the inhibition at 62.5 µg/mL (HCMV, strain AD-169; Human betaherpesvirus 5, AD169, MRC5, MRC-5 cells, AM 285 62.5 μg/ml) was 0%, the inhibition at 125 µg/mL (HCMV, strain AD-169; Human betaherpesvirus 5, AD169, MRC5, MRC-5 cells, AM 285 125 μg/ml) was 0% and the inhibition at 250 µg/mL (HCMV, strain AD-169; Human betaherpesvirus 5, AD169, MRC5, MRC-5 cells, AM 285 250 μg/ml) was 0%. For the same compound, the inhibition at 500 µg/mL (HCMV, strain AD-169; Human betaherpesvirus 5, AD169, MRC5, MRC-5 cells, AM 285 500 μg/ml) was 54%, the inhibition at 1000 µg/mL (HCMV, strain AD-169; Human betaherpesvirus 5, AD169, MRC5, MRC-5 cells, AM 285 1000 μg/ml) was 75% and the inhibition at 2000 µg/mL (HCMV, strain AD-169; Human betaherpesvirus 5, AD169, MRC5, MRC-5 cells, AM 285 2000 μg/ml) was 100%. For the same compound, the inhibition at 4000 µg/mL (HCMV, strain AD-169; Human betaherpesvirus 5, AD169, MRC5, MRC-5 cells, AM 285 4000 μg/ml) was 100%, the “TI50 (CD50 ÷ ED50)” value (HCMV, strain AD-169; MRC-5 cells, Table 4) was “greater than 6.5” and the “TI50 (CD50 ÷ ED50)” value (HCMV, strain AD-169; MRC-5 cells, Table 4, listed as AM 285) was greater than 6.5. For the same compound, the “# Plaques” value (HCMV, strain AD-169; MRC-5 cells, AM 285 62.5 μg/ml, virus control 26.4 ± 5.2) was 25, the “# Plaques” value (HCMV, strain AD-169; MRC-5 cells, AM 285 125 μg/ml, virus control 26.4 ± 5.2) was 26 and the “# Plaques” value (HCMV, strain AD-169; MRC-5 cells, AM 285 250 μg/ml, virus control 26.4 ± 5.2) was 23. The “# Plaques” value (HCMV, strain AD-169; MRC-5 cells, AM 285 500 μg/ml, virus control 26.4 ± 5.2) was 12, the “# Plaques” value (HCMV, strain AD-169; MRC-5 cells, AM 285 1000 μg/ml, virus control 26.4 ± 5.2) was 6 and the “# Plaques” value (HCMV, strain AD-169; MRC-5 cells, AM 285 2000 μg/ml, virus control 26.4 ± 5.2) was 0. For the same compound, the “# Plaques” value (HCMV, strain AD-169; MRC-5 cells, AM 285 4000 μg/ml, virus control 26.4 ± 5.2) was 0, the CC50 [1] was greater than 4000 µg/mL and the “Vmax/Km ratio relative to creatine” value (creatine kinase; forward reaction in vitro) was “approximately one-fifth”. For the same compound, the “initial rate of phosphorylation by creatine kinase, % of that of creatine” value (creatine kinase; in vitro, forward reaction) was 31%, the “Vmax, % of that of creatine” value (creatine kinase; measured at 1° C.) was 90% and the Ki (creatine kinase; reverse reaction at 1° C., read-out: Ki, competitive inhibitor of P-creatine) was 44 mM. For the same compound, the “effect on CPE” value [2] was “slight inhibitory effect”, the “# Plaques” value ([3]; AM 285 156.25 μg/ml) was 81 and the “# Plaques” value ([3]; AM 285 312.5 μg/ml) was 65.5. For the same compound, the “# Plaques” value ([3]; AM 285 625 μg/ml) was 52.5, the “# Plaques” value ([3]; AM 285 1250 μg/ml) was 48.5 and the “# Plaques” value ([3]; AM 285 2500 μg/ml) was 14.5. The “# Plaques” value ([3]; AM 285 5000 μg/ml) was 3.5, the “# Plaques” value ([3]; AM 285 10000 μg/ml) was 0 and the inhibition at 156.25 µg/mL ([3]; Human betaherpesvirus 5, MRC5, AM 285 156.25 μg/ml, read-out: % Reduction) was 0%. It also gave an inhibition at 312.5 µg/mL ([3]; Human betaherpesvirus 5, MRC5, AM 285 312.5 μg/ml, read-out: % Reduction) of 28%, an inhibition at 625 µg/mL ([3]; Human betaherpesvirus 5, MRC5, AM 285 625 μg/ml, read-out: % Reduction) of 42% and an inhibition at 1250 µg/mL ([3]; Human betaherpesvirus 5, MRC5, AM 285 1250 μg/ml, read-out: % Reduction) of 47%. For the same compound, the inhibition at 2500 µg/mL ([3]; Human betaherpesvirus 5, MRC5, AM 285 2500 μg/ml, read-out: % Reduction) was 84%, the inhibition at 5000 µg/mL ([3]; Human betaherpesvirus 5, MRC5, AM 285 5000 μg/ml, read-out: % Reduction) was 96% and the inhibition at 10000 µg/mL ([3]; Human betaherpesvirus 5, MRC5, AM 285 10000 μg/ml, read-out: % Reduction) was 100%. The EC50 ([3]; Human betaherpesvirus 5, MRC5, MRC-5 cells, Table 6, read-out: ED50 (the source's name)) was 900 µg/mL (≈ 6.29 mM) and the “TI50 (CD50 ÷ ED50)” value ([3]; MRC-5 cells, Table 6) was greater than 11.1.
